{
  "source": "paper PMC6396121",
  "about": "(ACS Omega, 2019)",
  "key": {"[1]": {"system": "BHK cells expressing HRAS^G12V", "assay": "Western analysis of cell signaling in BHK cells expressing HRAS G12V", "format": "cell-based, hamster"}, "HRAS^WT": {"molecular_target": "HRAS^WT (Homo sapiens, UniProt P01112)", "assay": "MST binding to HRAS WT", "settings": "GDP and GTP-bound forms"}, "[2]": {"molecular_target": "KRAS^G12D–cRaf interaction (Homo sapiens, UniProt P01116, G12D)", "assay": "FLIM-FRET of GFP-KRAS G12D with RFP-cRaf", "format": "cell-based, hamster", "settings": "1 μM compound"}, "KRAS": {"molecular_target": "KRAS (Homo sapiens, UniProt P01116)", "assay": "Intrinsic nucleotide", "format": "biochemical", "settings": "1 μM compound"}, "KRAS–Raf^RBD interaction": {"molecular_target": "KRAS–Raf^RBD interaction (Homo sapiens, UniProt P01116)", "assay": "Fluorescence polarization of KRAS binding to GST-Raf RBD", "format": "biochemical", "settings": "1 μM compound"}, "[3]": {"system": "oral cancer cells with or without mutant HRAS", "assay": "CyQUANT proliferation, oral cancer cells", "format": "cell-based", "settings": "5 μM compound, 72 h"}, "NRAS^WT": {"molecular_target": "NRAS^WT (Homo sapiens, UniProt P01111)", "sequence (P01111 1-166)": "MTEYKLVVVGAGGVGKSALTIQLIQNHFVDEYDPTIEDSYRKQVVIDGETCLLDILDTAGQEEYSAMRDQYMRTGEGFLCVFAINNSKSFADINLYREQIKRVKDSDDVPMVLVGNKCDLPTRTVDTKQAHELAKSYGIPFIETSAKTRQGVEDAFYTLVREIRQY", "assay": "MST binding to NRAS WT", "settings": "GDP and GTP-bound forms"}, "KRAS and SOS [4]": {"molecular_target": "T1, KRAS and SOS (Homo sapiens, UniProt P01116)", "assay": "SOS-mediated nucleotide exchange", "format": "biochemical", "settings": "1 μM compound"}, "[5]": {"system": "BHK cells expressing KRAS^G12D", "assay": "Western analysis of cell signaling in BHK cells expressing KRAS G12D", "format": "cell-based, hamster"}, "KRASWT": {"molecular_target": "KRASWT (Homo sapiens, UniProt P01116)", "assay": "Intrinsic nucleotide exchange", "format": "biochemical", "settings": "1 μM compound"}, "[6]": {"system": "lung cancer cells with wild-type KRAS", "assay": "CyQUANT proliferation, lung cancer cells with wild-type KRAS", "format": "cell-based", "settings": "5 μM compound, 72 h"}, "[7]": {"system": "BHK cells expressing KRAS^G12V", "assay": "Western analysis of cell signaling in BHK cells expressing KRAS G12V", "format": "cell-based, hamster"}, "[8]": {"molecular_target": "KRAS^G12D and RBD interaction (Homo sapiens, UniProt P01116, G12D)", "assay": "FLIM-FRET of GFP-KRAS G12D with mCherry-RBD in BHK cells", "format": "cell-based, hamster", "settings": "1 μM compound for 2 h; ∼1.93 ns untreated, ∼2.3 ns without RBD"}, "^GDPKRAS^WT": {"molecular_target": "^GDPKRAS^WT (Homo sapiens, UniProt P01116)", "assay": "MST binding to GDP-bound KRAS WT", "settings": "GDP state"}, "[9]": {"molecular_target": "KRAS^G12D–Raf^RBD interaction (Homo sapiens, UniProt P01116, G12D)", "assay": "Pull-down of GFP-KRAS G12D by GST-Raf RBD in cell lysates", "format": "biochemical", "settings": "1 μM compound"}, "Rap1b": {"molecular_target": "T2, Rap1b (Homo sapiens, UniProt P61224)", "T2 sequence (P61224 1-166)": "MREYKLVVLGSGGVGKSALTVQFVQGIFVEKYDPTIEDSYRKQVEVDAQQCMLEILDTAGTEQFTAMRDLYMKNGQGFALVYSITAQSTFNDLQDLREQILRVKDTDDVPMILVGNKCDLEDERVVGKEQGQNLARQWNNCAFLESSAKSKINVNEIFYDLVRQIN", "assay": "MST binding to control GTPase Rap1b", "settings": "control RAS-related small GTPase"}, "KRAS and SOS [10]": {"molecular_target": "T1, KRAS and SOS", "assay": "SOS-mediated nucleotide", "format": "biochemical"}, "[11]": {"system": "lung cancer cells harboring KRAS^G12D or KRAS^G12V", "assay": "CyQUANT proliferation, lung cancer cells with mutant KRAS", "format": "cell-based", "settings": "5 μM compound, 72 h"}, "^GDPKRAS^G12D": {"molecular_target": "^GDPKRAS^G12D (Homo sapiens, UniProt P01116, G12D)", "assay": "MST binding to GDP-bound KRAS G12D", "settings": "GDP state"}, "[12]": {"molecular_target": "HRAS^G12V with Raf^RBD interaction (Homo sapiens, UniProt P01112, G12V)", "assay": "FLIM-FRET of GFP-HRAS G12V with mCherry-RBD in BHK cells", "format": "cell-based, hamster", "settings": "1 μM compound"}},
  "data": [
    {"smiles": "N#CC(=C(/N)Sc1ccccc1N)/C(C#N)=C(/N)Sc1ccccc1N", "note": "[Compound U0126, reference compound]", "values": [
      {"measurement": "effect on MAPK signaling", "setting": "[1]; 10 μM", "value": "almost completely abolished"}
    ]},
    {"smiles": "Cc1nn2c(N3CCN(CCO)CC3)cc(-c3ccccc3)nc2c1-c1ccccc1", "note": "[Compound 11, 2-[4-(8-methyl-3,9-diphenyl-2,6,7-triazabicyclo[4.3.0]nona-2,4,7,9-tetraen-5-yl)piperazin-1-yl]ethanol]", "values": [
      {"measurement": "binding detected by MST", "setting": "HRAS^WT", "value": "very weak or no binding"},
      {"measurement": "quenching of GFP fluorescence lifetime (KRAS^G12D–cRaf interaction)", "setting": "[2]", "value": "significantly reduced"},
      {"measurement": "maximum reduction in rate", "setting": "KRAS", "value": "≤ 5", "unit": "%"},
      {"measurement": "fold reduction of affinity of KRAS to Raf^RBD", "setting": "KRAS–Raf^RBD interaction", "value": "~13", "unit": "fold"},
      {"measurement": "reduction of polarization (RAS–Raf^RBD interaction)", "setting": "KRAS–Raf^RBD interaction; at 2 μM GST–Raf^RBD", "value": "> 80", "unit": "%"},
      {"measurement": "growth relative to DMSO control", "setting": "[3]", "value": "60–80%"},
      {"measurement": "binding detected by MST", "setting": "NRAS^WT", "value": "very weak or no binding"},
      {"measurement": "maximum reduction in rate", "setting": "KRAS and SOS [4]", "value": "≤ 5", "unit": "%"},
      {"measurement": "drop in p-ERK levels", "setting": "[5]; 1 μM, 3 h treatment", "value": "about 50%"},
      {"measurement": "reduction of p-ERK levels", "setting": "[5]; 5 μM, expanded concentration range", "value": "~50", "unit": "%"},
      {"measurement": "concentrations at which p-ERK levels decreased", "setting": "[5]; primary western screen", "value": "≥ 1", "unit": "µM"},
      {"measurement": "effect on p-AKT levels (AKT pathway signaling)", "setting": "[5]; western", "value": "inhibits signaling through the AKT pathway but to a lesser extent than the MAPK pathway"},
      {"measurement": "maximum reduction in rate", "setting": "KRASWT", "value": "≤ 5", "unit": "%"},
      {"measurement": "growth relative to DMSO control", "setting": "[6]", "value": "60–80%"},
      {"measurement": "effect on p-ERK and p-cRaf levels", "setting": "[7]", "value": "dose-dependently decreases"},
      {"measurement": "GFP fluorescence lifetime", "setting": "[8]", "value": "~2.02", "unit": "ns"},
      {"measurement": "binding detected by MST", "setting": "^GDPKRAS^WT", "value": "very weak or no binding"},
      {"measurement": "decrease in GFP–KRAS^G12D levels pulled down", "setting": "[9]", "value": "> 50", "unit": "%"},
      {"measurement": "binding detected by MST", "setting": "Rap1b", "value": "very weak or no binding"},
      {"measurement": "effect on SOS-mediated nucleotide release rate", "setting": "KRAS and SOS [10]", "value": "only modestly decreased"},
      {"measurement": "maximum reduction in rate", "setting": "KRAS and SOS [10]; 1 μM compound", "value": "≤ 5", "unit": "%"},
      {"measurement": "growth relative to DMSO control", "setting": "[11]", "value": "30–35%"},
      {"measurement": "effect on p-AKT levels", "setting": "[1]; western", "value": "no statistically significant effect"},
      {"measurement": "effect on p-ERK and p-cRaf levels", "setting": "[1]; western, ligand concentration range tested", "value": "less effect"},
      {"measurement": "binding detected by MST", "setting": "^GDPKRAS^G12D", "value": "very weak or no binding"},
      {"measurement": "effect on interaction of HRAS^G12V with Raf^RBD", "setting": "[12]", "value": "opposite albeit small effect"}
    ]}
  ]
}
